Source: PubChem BioAssay (NCI)
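Results reflect a 48-hour exposure of cells in 96-well plates to compound at five concentrations. GI50 marks 50% less growth. TGI denotes the concentration required for complete inhibition of growth.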

Experiments:
Assay in all cases: DTP human tumour cell line panel, 48 h
SF-295 CNS = test system: SF-295 CNS
RXF 393 renal = test system: RXF 393 renal
SK-MEL-5 melanoma = test system: SK-MEL-5 melanoma
UACC-62 melanoma = test system: UACC-62 melanoma
HOP-92 NSCLC = test system: HOP-92 NSCLC
UACC-257 melanoma = test system: UACC-257 melanoma
EKVX NSCLC = test system: EKVX NSCLC
SN12C renal = test system: SN12C renal
IGROV1 ovarian = test system: IGROV1 ovarian
A498 renal = test system: A498 renal
SNB-75 CNS = test system: SNB-75 CNS
SR leukemia = test system: SR leukemia
HOP-62 NSCLC = test system: HOP-62 NSCLC
SF-268 CNS = test system: SF-268 CNS
OVCAR-5 ovarian = test system: OVCAR-5 ovarian
HT29 colon = test system: HT29 colon
M14 melanoma = test system: M14 melanoma
PC-3 prostate = test system: PC-3 prostate
SK-MEL-2 melanoma = test system: SK-MEL-2 melanoma
DU-145 prostate = test system: DU-145 prostate
ACHN renal = test system: ACHN renal
HS 578T breast = test system: HS 578T breast
TK-10 renal = test system: TK-10 renal
A549 NSCLC = test system: A549 NSCLC
OVCAR-8 ovarian = test system: OVCAR-8 ovarian
OVCAR-3 ovarian = test system: OVCAR-3 ovarian
LOX IMVI melanoma = test system: LOX IMVI melanoma
K-562 leukemia = test system: K-562 leukemia
MALME-3M melanoma = test system: MALME-3M melanoma

With COC(=O)C1=CN(CC2=CC(=O)C(C)=CC2=O)C=C(C(=O)OC)C1c1cc(OC)ccc1OC as the molecule, how does the GI50 (SF-295 CNS) read?
The GI50 was 18.5 µM.

What about the TGI (SF-295 CNS) of the same molecule?
The TGI was 38 µM.

What about the GI50 (RXF 393 renal) of the same molecule?
The GI50 was 3000 nM.

What about the TGI (RXF 393 renal) of the same molecule?
The TGI was 11.6 µM.

And the GI50 (SK-MEL-5 melanoma)?
The GI50 was 14.8 µM.

And the TGI (SK-MEL-5 melanoma)?
The TGI was 29.1 µM.

And the GI50 (UACC-62 melanoma)?
The GI50 was 13.3 µM.

What about the TGI (UACC-62 melanoma) of the same molecule?
The TGI was 26.4 µM.

And the GI50 (HOP-92 NSCLC)?
The GI50 was 658 nM.

What about the TGI (HOP-92 NSCLC) of the same molecule?
Its TGI is 11.9 µM.

What about the GI50 (UACC-257 melanoma) of the same molecule?
Its GI50 is 14.1 µM.

What about the TGI (UACC-257 melanoma) of the same molecule?
Its TGI is 27.4 µM.

And the GI50 (EKVX NSCLC)?
The GI50 was 16 µM.

What about the TGI (EKVX NSCLC) of the same molecule?
Its TGI is 31.8 µM.

And the GI50 (SN12C renal)?
Its GI50 is 16 µM.

What about the TGI (SN12C renal) of the same molecule?
Its TGI is 33.2 µM.

And the GI50 (IGROV1 ovarian)?
Its GI50 is 16.6 µM.

What about the TGI (IGROV1 ovarian) of the same molecule?
Its TGI is 43.1 µM.

And the GI50 (A498 renal)?
The GI50 was 15 µM.

What about the TGI (A498 renal) of the same molecule?
The TGI was 29.7 µM.

And the GI50 (SNB-75 CNS)?
The GI50 was 25.4 µM.

What about the TGI (SNB-75 CNS) of the same molecule?
The TGI was 74.1 µM.

What about the GI50 (SR leukemia) of the same molecule?
Its GI50 is 2590 nM.

What about the TGI (SR leukemia) of the same molecule?
Its TGI is > 22.3 µM.

And the GI50 (HOP-62 NSCLC)?
The GI50 was 19.9 µM.

And the TGI (HOP-62 NSCLC)?
Its TGI is 38 µM.

And the GI50 (SF-268 CNS)?
The GI50 was 13.8 µM.

What about the TGI (SF-268 CNS) of the same molecule?
Its TGI is 31.3 µM.

What about the GI50 (OVCAR-5 ovarian) of the same molecule?
The GI50 was 13.9 µM.

What about the TGI (OVCAR-5 ovarian) of the same molecule?
The TGI was 28 µM.

And the GI50 (HT29 colon)?
The GI50 was 4.71 µM.

What about the TGI (HT29 colon) of the same molecule?
The TGI was > 100 µM.

And the GI50 (M14 melanoma)?
The GI50 was 12.1 µM.

What about the TGI (M14 melanoma) of the same molecule?
Its TGI is 26.5 µM.

And the GI50 (PC-3 prostate)?
The GI50 was 9.42 µM.

And the TGI (PC-3 prostate)?
Its TGI is 24.7 µM.

And the GI50 (SK-MEL-2 melanoma)?
The GI50 was 24 µM.

And the TGI (SK-MEL-2 melanoma)?
The TGI was > 73 µM.

And the GI50 (DU-145 prostate)?
Its GI50 is 13.8 µM.

And the TGI (DU-145 prostate)?
Its TGI is 26.8 µM.

What about the GI50 (ACHN renal) of the same molecule?
The GI50 was 1850 nM.

And the TGI (ACHN renal)?
The TGI was 3.87 µM.

What about the GI50 (HS 578T breast) of the same molecule?
The GI50 was 4.54 µM.

What about the TGI (HS 578T breast) of the same molecule?
Its TGI is 27.3 µM.

What about the GI50 (TK-10 renal) of the same molecule?
The GI50 was 10.7 µM.

What about the TGI (TK-10 renal) of the same molecule?
Its TGI is 36.8 µM.

And the GI50 (A549 NSCLC)?
Its GI50 is 13.5 µM.

And the TGI (A549 NSCLC)?
The TGI was 31.2 µM.

What about the GI50 (OVCAR-8 ovarian) of the same molecule?
Its GI50 is 12.9 µM.

And the TGI (OVCAR-8 ovarian)?
Its TGI is 38.4 µM.

And the GI50 (OVCAR-3 ovarian)?
The GI50 was 12.5 µM.

What about the TGI (OVCAR-3 ovarian) of the same molecule?
The TGI was 29.2 µM.

And the GI50 (LOX IMVI melanoma)?
Its GI50 is 13.7 µM.

And the TGI (LOX IMVI melanoma)?
Its TGI is 26.6 µM.

What about the GI50 (K-562 leukemia) of the same molecule?
Its GI50 is 3.85 µM.

And the GI50 (MALME-3M melanoma)?
Its GI50 is 20 µM.

What about the TGI (MALME-3M melanoma) of the same molecule?
The TGI was 36 µM.
